Experimental data from patent US8168779B2, “Anhydrous crystalline β-maltose, its preparation and uses” (priority 2006, dated 2012).
Values belong to the compound of their own block, whether it stands above or below them.

Experiments:
[1] = mercury filling method; for Intrusion volume: initial pressure 15 kPa; for Median pore diameter / Mode pore diameter: control values originate from space between crystal particles, not pores
[2] = Deionized water-solidifying test (base for solidifying moisture-containing compositions); type: physicochemical; settings: 25° C.; for (Appearance) / Condition: after 20 hours from the dissolution; for Time of solidification completed / Time of solidification started: monitored for 2 hours
From the text: After completing the dissolution, each test solution was further stirred for four minutes and then the stirring was stopped. Successively, each test solution was left to stand and a solidification of the test solution by the crystallization of hydrous crystalline maltose was monitored macroscopically for two hours. In the cases of the solidified samples, the time of starting the crystallization and that of completing the solidification were checked. (However, the test solution dissolving 18.8 g of crystal was stopped stirring at three minutes after the dissolution because the crystallization of hydrous crystalline maltose was started immediately.) After monitoring macroscopically for two hours, each vessel containing any one of the sample solutions was closed and further left to stand for 18 hours. Then, the condition (appearance) of the test samples after 20 hours from the dissolution was monitored macroscopically and evaluated by the following three phases: (1) clear solution; (2) clouded solution; and (3) solidified. The samples prepared by using 10.0 g, 11.5 g, 13.3 g, or 18.8 g of the anhydrous crystalline α-maltose used in Example 2, as a substitute of the test samples, were treated by the same procedure as controls. The test was carried out in a room where a temperature was kept at 25° C. The results of each sample after 2 and 20 hours are shown in Table 5 and FIG. 13, and Table 6 and FIG. 14, respectively.

[3] = Specific surface area by nitrogen adsorption isotherms (BET); type: physicochemical; settings: BET method, listed as anhydrous crystalline β-maltose of Control 3
Procedure: About 3 g of the anhydrous crystalline β-maltose, obtained in Example 1, was dried in the apparatus under a reduced pressure at about 40° C. for about 15 hours as a pretreatment, and then used for the measurement of specific surface area by the nitrogen adsorption isotherms. The result was analyzed by conventional BET (Brunnauer, Emmet, and Teller) method.

[4] = Hygroscopicity test (moisture content under controlled relative humidity); type: physicochemical; settings: 27° C.
Procedure: Moisture contents of the samples at respective periods were measured based on the change of weight from the start of the test. The moisture contents of the samples at the start of the test were measured by Karl Fischer's method.

[5] = 8.2 g dissolved in 10 g deionized water (45.0%)
[6] = 8.2 g dissolved in 10 g deionized water (calc. conc. 45.0%)
[7] = 10.0 g dissolved in 10 g deionized water (50.0%)
[8] = 10.0 g dissolved in 10 g deionized water (calc. conc. 50.0%)
[9] = 11.5 g dissolved in 10 g deionized water (53.5%)
[10] = 11.5 g dissolved in 10 g deionized water (calc. conc. 53.5%)
[11] = 13.3 g dissolved in 10 g deionized water (calc. conc. 57.0%)
[12] = 18.8 g dissolved in 10 g deionized water (calc. conc. 65.0%)

SMILES: OC[C@H]1O[C@H](O[C@H]2[C@H](O)[C@@H](O)[C@H](O)O[C@@H]2CO)[C@H](O)[C@@H](O)[C@@H]1O [Anhydrous crystalline β-maltose (Control 3)]
Intrusion volume [1]: (No pore)
Median pore diameter [1]: 14.70 μm
Mode pore diameter [1]: 25.70 μm

SMILES: OC[C@H]1O[C@H](O[C@H]2[C@H](O)[C@@H](O)[C@H](O)O[C@@H]2CO)[C@H](O)[C@@H](O)[C@@H]1O [Anhydrous crystalline β-maltose converted by the ethanol tre]
(Appearance) [2, 5]: (Clear solution)
Condition [2, 5]: Not solidified
Time of solidification completed [2, 6]: Not solidified
Time of solidification started [2, 6]: Not solidified
(Appearance) [2, 7]: (Clear solution)
Condition [2, 7]: Not solidified
Time of solidification completed [2, 8]: Not solidified
Time of solidification started [2, 8]: Not solidified
(Appearance) [2, 9]: (Clouded solution)
Condition [2, 9]: Not solidified
Time of solidification completed [2, 10]: Not solidified
Time of solidification started [2, 10]: Not solidified
Condition ([2]; 13.3 g dissolved in 10 g deionized water (57.0%)): Solidified
Time of solidification completed [2, 11]: 8.0 min
Time of solidification started [2, 11]: 6.0 min
Condition ([2]; 18.8 g dissolved in 10 g deionized water (65.0%)): Solidified
Time of solidification completed [2, 12]: 3.5 min
Time of solidification started [2, 12]: 3.0 min
Intrusion volume [1]: 1.05 mL/g
Median pore diameter [1]: 1.26 μm
Mode pore diameter [1]: 1.44 μm

SMILES: OC[C@H]1O[C@H](O[C@H]2[C@H](O)[C@@H](O)[C@H](O)O[C@@H]2CO)[C@H](O)[C@@H](O)[C@@H]1O [Anhydrous crystalline β-maltose]
Specific surface area [3]: 0.82 m^2/g
Moisture content of samples ([4]; RH 47% (lithium nitrate), 0 hour (start, Karl Fischer), listed as AC β-Mal (Control 3)): 0.24 %, w/w
Moisture content of samples ([4]; RH 47% (lithium nitrate), 2 hours, listed as AC β-Mal (Control 3)): 0.32 %, w/w
Moisture content of samples ([4]; RH 47% (lithium nitrate), 4 hours, listed as AC β-Mal (Control 3)): 0.47 %, w/w
Moisture content of samples ([4]; RH 47% (lithium nitrate), 24 hours, listed as AC β-Mal (Control 3)): 0.54 %, w/w
Moisture content of samples ([4]; RH 47% (lithium nitrate), 96 hours, listed as AC β-Mal (Control 3)): 0.61 %, w/w
Moisture content of samples ([4]; RH 47% (lithium nitrate), 192 hours, listed as AC β-Mal (Control 3)): 0.47 %, w/w
Moisture content of samples ([4]; RH 58% (sodium bromide), 0 hour (start, Karl Fischer), listed as AC β-Mal (Control 3)): 0.24 %, w/w
Moisture content of samples ([4]; RH 58% (sodium bromide), 2 hours, listed as AC β-Mal (Control 3)): 4.68 %, w/w
Moisture content of samples ([4]; RH 58% (sodium bromide), 4 hours, listed as AC β-Mal (Control 3)): 6.92 %, w/w
Moisture content of samples ([4]; RH 58% (sodium bromide), 6 hours, listed as AC β-Mal (Control 3)): 6.71 %, w/w
Moisture content of samples ([4]; RH 58% (sodium bromide), 8 hours, listed as AC β-Mal (Control 3)): 6.28 %, w/w
Moisture content of samples ([4]; RH 58% (sodium bromide), 24 hours, listed as AC β-Mal (Control 3)): 5.63 %, w/w
Moisture content of samples ([4]; RH 58% (sodium bromide), 96 hours, listed as AC β-Mal (Control 3)): 5.48 %, w/w
Moisture content of samples ([4]; RH 58% (sodium bromide), 192 hours, listed as AC β-Mal (Control 3)): 5.42 %, w/w
Moisture content of samples ([4]; RH 75% (sodium chloride), 0 hour (start, Karl Fischer), listed as AC β-Mal (Control 3)): 0.24 %, w/w
Moisture content of samples ([4]; RH 75% (sodium chloride), 2 hours, listed as AC β-Mal (Control 3)): 6.86 %, w/w
Moisture content of samples ([4]; RH 75% (sodium chloride), 4 hours, listed as AC β-Mal (Control 3)): 6.76 %, w/w
Moisture content of samples ([4]; RH 75% (sodium chloride), 6 hours, listed as AC β-Mal (Control 3)): 6.47 %, w/w
Moisture content of samples ([4]; RH 75% (sodium chloride), 8 hours, listed as AC β-Mal (Control 3)): 6.34 %, w/w
Moisture content of samples ([4]; RH 75% (sodium chloride), 24 hours, listed as AC β-Mal (Control 3)): 6.16 %, w/w
Moisture content of samples ([4]; RH 75% (sodium chloride), 96 hours, listed as AC β-Mal (Control 3)): 6.01 %, w/w
Moisture content of samples ([4]; RH 75% (sodium chloride), 192 hours, listed as AC β-Mal (Control 3)): 5.93 %, w/w
Moisture content of samples ([4]; RH 90% (barium chloride), 0 hour (start, Karl Fischer), listed as AC β-Mal (Control 3)): 0.24 %, w/w
Moisture content of samples ([4]; RH 90% (barium chloride), 2 hours, listed as AC β-Mal (Control 3)): 7.28 %, w/w
Moisture content of samples ([4]; RH 90% (barium chloride), 4 hours, listed as AC β-Mal (Control 3)): 7.66 %, w/w
Moisture content of samples ([4]; RH 90% (barium chloride), 6 hours, listed as AC β-Mal (Control 3)): 7.45 %, w/w
Moisture content of samples ([4]; RH 90% (barium chloride), 8 hours, listed as AC β-Mal (Control 3)): 7.45 %, w/w
Moisture content of samples ([4]; RH 90% (barium chloride), 24 hours, listed as AC β-Mal (Control 3)): 8.46 %, w/w
Moisture content of samples ([4]; RH 90% (barium chloride), 96 hours, listed as AC β-Mal (Control 3)): 10.20 %, w/w
Moisture content of samples ([4]; RH 90% (barium chloride), 192 hours, listed as AC β-Mal (Control 3)): 9.12 %, w/w

Moisture content of samples ([4]; RH 47% (lithium nitrate), 0 hour (start, Karl Fischer)): 5.24 %, w/w
Moisture content of samples ([4]; RH 47% (lithium nitrate), 2 hours): 5.23 %, w/w
Moisture content of samples ([4]; RH 47% (lithium nitrate), 4 hours): 5.23 %, w/w
Moisture content of samples ([4]; RH 47% (lithium nitrate), 24 hours): 5.23 %, w/w
Moisture content of samples ([4]; RH 47% (lithium nitrate), 96 hours): 5.26 %, w/w
Moisture content of samples ([4]; RH 47% (lithium nitrate), 192 hours): 5.23 %, w/w
Moisture content of samples ([4]; RH 58% (sodium bromide), 0 hour (start, Karl Fischer)): 5.24 %, w/w
Moisture content of samples ([4]; RH 58% (sodium bromide), 2 hours): 5.22 %, w/w
Moisture content of samples ([4]; RH 58% (sodium bromide), 4 hours): 5.25 %, w/w
Moisture content of samples ([4]; RH 58% (sodium bromide), 6 hours): 5.26 %, w/w
Moisture content of samples ([4]; RH 58% (sodium bromide), 8 hours): 5.25 %, w/w
Moisture content of samples ([4]; RH 58% (sodium bromide), 24 hours): 5.25 %, w/w
Moisture content of samples ([4]; RH 58% (sodium bromide), 96 hours): 5.28 %, w/w
Moisture content of samples ([4]; RH 58% (sodium bromide), 192 hours): 5.26 %, w/w
Moisture content of samples ([4]; RH 75% (sodium chloride), 0 hour (start, Karl Fischer)): 5.24 %, w/w
Moisture content of samples ([4]; RH 75% (sodium chloride), 2 hours): 5.21 %, w/w
Moisture content of samples ([4]; RH 75% (sodium chloride), 4 hours): 5.25 %, w/w
Moisture content of samples ([4]; RH 75% (sodium chloride), 6 hours): 5.25 %, w/w
Moisture content of samples ([4]; RH 75% (sodium chloride), 8 hours): 5.25 %, w/w
Moisture content of samples ([4]; RH 75% (sodium chloride), 24 hours): 5.25 %, w/w
Moisture content of samples ([4]; RH 75% (sodium chloride), 96 hours): 5.29 %, w/w
Moisture content of samples ([4]; RH 75% (sodium chloride), 192 hours): 5.23 %, w/w
Moisture content of samples ([4]; RH 90% (barium chloride), 0 hour (start, Karl Fischer)): 5.24 %, w/w
Moisture content of samples ([4]; RH 90% (barium chloride), 2 hours): 5.26 %, w/w
Moisture content of samples ([4]; RH 90% (barium chloride), 4 hours): 5.27 %, w/w
Moisture content of samples ([4]; RH 90% (barium chloride), 6 hours): 5.26 %, w/w
Moisture content of samples ([4]; RH 90% (barium chloride), 8 hours): 5.26 %, w/w
Moisture content of samples ([4]; RH 90% (barium chloride), 24 hours): 5.24 %, w/w
Moisture content of samples ([4]; RH 90% (barium chloride), 96 hours): 5.61 %, w/w
Moisture content of samples ([4]; RH 90% (barium chloride), 192 hours): 5.36 %, w/w
SMILES: OCC1OC(OC2C(CO)OC(O)C(O)C2O)C(O)C(O)C1O (stereo not drawn) [HC β-Mal (Control 1), Hydrous crystalline β-maltose]
